These results are taken from publication PMC11188305, “Reproductive and fetal toxicity studies of histamine H3 receptor antagonist DL76 used in mice to prevent maximal electroshock-induced seizure” (Frontiers in Pharmacology, 2024).

Data set [1] has as its system photosensitivity seizure model. On the set-up: method as in Lamb, 2020. The following applies: adult patients; ref Lamb, 2020; cited from earlier work.
The subject of data set [2] is experimental seizure models. On the set-up: method as in earlier work. The following applies: acute and chronic experimental seizure models; ref Brown et al., 2001; Vohora et al., 2010; Witkin and Nelson, 2004; Sadek et al., 2015; Bastaki et al., 2018; cited from earlier work.
In data set [3] the test system is MES-induced seizures in mice. More on the design: method as in Sadek et al., 2015; Bastaki et al., 2018. Conditions: ref Sadek et al., 2015, Bastaki et al., 2018; cited from earlier work.
Data set [4] concerns MES-induced seizures in mice. The data set can be described thus: Maximal electroshock (MES)-induced seizure, duration of tonic hind limb extension (THLE). Type of data set: in vivo, C57BL/6J mice. The source says:
As previously described and with a slight modification in the intensity applied, seizures were elicited in mice with a 50-Hz alternating current of 120 mA intensity ([Kaminski et al., 2015]; [Song et al., 2020]; [Xiao et al., 2021]; [Hua et al., 2023]). The current was applied through ear electrodes for 0.2 s. Protection against the spread of MES-induced convulsion was defined as the abolition of the tonic hind limb extension (THLE) component of the seizure ([Kaminski et al., 2015]; [Song et al., 2020]; [Xiao et al., 2021]; [Hua et al., 2023]). The animals were divided into the following experimental groups, with eight mice in each: the control group injected with saline, the positive control group injected with 300 mg/kg of VPA (the minimal dose of VPA that protected animals against the spread of MES-induced convulsions without mortality in mice) ([Sadek et al., 2015]; [Bastaki et al., 2018]), and four groups that were administered the test compound DL76 at doses of 7.5 mg/kg, 15 mg/kg, 30 mg/kg, or 60 mg/kg. All drugs were administered 30–45 min before the MES challenge. In a further group of eight mice, the most promising and protective dose of DL76 (60 mg/kg, i.p.) was co-injected with RAM (10 mg/kg, i.p.), 30 min apart and 15 min prior to the MES test. Protection against the spread of MES-induced convulsion was defined as the abolition of the THLE component of the convulsion ([Sadek et al., 2015]; [Alachkar et al., 2018]; [Bastaki et al., 2018]).
Statistical analyses employed SPSS 26.0 (IBM Middle East, Dubai, UAE). Data were presented as means ± SEM. […] Fetal abnormality data were presented as counts and percentages. Fisher’s exact test compared the percentages of abnormalities between the control group (saline) and the different dose groups. All tests were two-tailed, and significance was set at p < 0.05.

For data set [5], the system named is C57BL/6 mice. More on the design: method as in Chateauvieux et al., 2010. Conditions: ref Chateauvieux et al., 2010; cited from earlier work.

`Clc1ccc(CCCOCCCN2CCCCC2)cc1` [PIT]: in data set [1], the “effects against the photosensitivity seizure model” value is “protective effects”.

For the compound `S=C(NC1CCCCC1)N1CCC(c2cnc[nH]2)CC1` [thioperamide], the anticonvulsant efficacy entry in data set [2] is recorded as “anticonvulsant efficacy”.

As for `CCCC(CCC)C(=O)O` [VPA, valproic acid, reference compound], the “minimal dose that protected animals against the spread of MES-induced convulsions without mortality” value in data set [3] was 300 mg/kg. In addition, the “difference of protective effects between male and female mice” value in data set [4] (VPA 300 mg/kg i.p., p = 0.164) is given as “no significant differences”. Moreover, in data set [4] (female adult mice, VPA 300 mg/kg i.p.), the “protection against MES-induced convulsions” value was “significantly protected”. In addition, the malformations result in data set [5] was “induce malformations”.

On to `C[C@@H](N)Cc1c[nH]cn1` [RAM, (R)-α-methylhistamine, reference compound], for which, in data set [4] (female adult mice, RAM 10 mg/kg i.p., p = 0.91 saline-saline vs. saline-RAM), the “effect of RAM alone on MES-induced convulsions” value was “results similar to those witnessed in male adult mice”. In addition, the “effect on MES-induced convulsions when injected alone” value in data set [4] (male adult mice, RAM 10 mg/kg i.p., p = 0.602) is given as “did not affect MES-induced convulsions”. Besides, in data set [4] (mice, both sexes, RAM 10 mg/kg), the “activity of RAM injected alone in MES-induced convulsion” value is “neither a protective nor an epileptogenic activity”.

Turning to `CCC(C)(C)c1ccc(OCCCN2CCCCC2)cc1` [DL77], in data set [2], the anticonvulsant efficacy entry is recorded as “anticonvulsant efficacy”.
